What all share (type): in vivo
Conditions in all cases: 250 g/ha, after 13 days

In test [1] the test system is Amaranthus retoflexus (AMARE). As to the kind of experiment: B4 Pre-Emergence Efficacy Test 2. As for the experimental part: (§1) Seeds of a variety of test species were sown in standard soil in pots: Amaranthus retoflexus (AMARE), Setaria faberi (SETFA), Echinochloa crus-galli (ECHCG), Ipomoea hederacea (IPOHE), Zea Mays (ZEAMX), Abutilon theophrasti (ABUTH). After cultivation for one day (pre-emergence) under controlled conditions in a glasshouse (at 24/16° C., day/night; 14 hours light; 65% humidity), the plants were sprayed with an aqueous spray solution derived from the formulation of the technical active ingredient in acetone/water (50:50) solution containing 0.5% Tween 20 (polyoxyethelyene sorbitan monolaurate, CAS RN 9005-64-5). Compounds are applied at 250 g/ha. The test plants were then grown in a glasshouse under controlled conditions (at 24/16° C., day/night; 14 hours light; 65% humidity) and watered twice daily. After 13 days, the test is evaluated for the percentage damage caused to the plant. The biological activities are assessed on a five point scale (5=80-100%; 4=60-79%; 3=40-59%; 2=20-39%; 1=0-19%). A blank value in the table is indicative that the compound was not tested on that species.

Test [2] has as its system Abutilon theophrasti (ABUTH). As to the kind of experiment: B4 Pre-Emergence Efficacy Test 2. As for the experimental part: as §1
The test system of test [3] is Ipomoea hederacea (IPOHE). As to the kind of experiment: B4 Pre-Emergence Efficacy Test 2. As for the experimental part: as §1
In test [4] the test system is Zea Mays (ZEAMX). As to the kind of experiment: B4 Pre-Emergence Efficacy Test 2. As for the experimental part: as §1
The test system of test [5] is Echinochloa crus-galli (ECHCG). Briefly: B4 Pre-Emergence Efficacy Test 2. As for the experimental part:
as §1

Test [6] concerns Setaria faberi (SETFA). Briefly: B4 Pre-Emergence Efficacy Test 2. As for the experimental part:
as §1

Test [7] concerns Amaranthus retoflexus (AMARE). Briefly: B2 Post-Emergence Efficacy Test 2. As for the experimental part: (§2) Seeds of a variety of test species are sown in standard soil in pots:— Amaranthus retoflexus (AMARE), Setaria faberi (SETFA), Echinochloa crus-galli (ECHCG), Ipomoea hederacea (IPOHE), Zea Mays (ZEAMX), Abutilon theophrasti (ABUTH). After 8 days cultivation (post-emergence) under controlled conditions in a glasshouse (at 24/16° C., day/night; 14 hours light; 65% humidity), the plants are sprayed with an aqueous spray solution derived from the formulation of the technical active ingredient in acetone/water (50:50) solution containing 0.5% Tween 20 (polyoxyethylene sorbitan monolaurate, CAS RN 9005-64-5). Compounds are applied at 250 g/ha. The test plants are then grown in a glasshouse under controlled conditions in a glasshouse (at 24/16° C., day/night; 14 hours light; 65% humidity) and watered twice daily. After 13 days, the test is evaluated for the percentage damage caused to the plant. The biological activities are assessed on a five point scale (5=80-100%; 4=60-79%; 3=40-59%; 2=20-39%; 1=0-19%). A blank value in the table is indicative that the compound was not tested on that species.

Test [8] deals with Abutilon theophrasti (ABUTH). As to the kind of experiment: B2 Post-Emergence Efficacy Test 2. As for the experimental part: as §2
Test [9] deals with Ipomoea hederacea (IPOHE). As to the kind of experiment: B2 Post-Emergence Efficacy Test 2. As for the experimental part:
as §2

The test system of test [10] is Zea Mays (ZEAMX). Briefly: B2 Post-Emergence Efficacy Test 2. As for the experimental part: as §2
Test [11] deals with Echinochloa crus-galli (ECHCG). Briefly: B2 Post-Emergence Efficacy Test 2. As for the experimental part:
as §2

The test system of test [12] is Setaria faberi (SETFA). As to the kind of experiment: B2 Post-Emergence Efficacy Test 2. As for the experimental part: as §2

For `Cc1nn(C)c(=O)c(-c2c(F)ccc(Cl)c2CCc2ccc3sccc3c2)c1O` [Compound 1.348], the “percentage damage caused to the plant, five point scale, AMARE” value (from here on “percentage damage caused … AMARE”) in test [1] is 5 (5=80-100%); in test [7], 4 (4=60-79%). The “percentage damage caused to the plant, five point scale, ABUTH” value (from here on “percentage damage caused … ABUTH”) in [2] and in [8] was 3 (3=40-59%) in each case. Besides, the “percentage damage caused to the plant, five point scale, IPOHE” value (from here on “percentage damage caused … IPOHE”) in [3] is reported as 5 (5=80-100%); in [9], 4 (4=60-79%). Moreover, the “percentage damage caused to the plant, five point scale, ZEAMX” value (from here on “percentage damage caused … ZEAMX”) with Zea Mays (ZEAMX) [4] is listed as 1 (1=0-19%); in the test on Zea Mays (ZEAMX) [10], 4 (4=60-79%). Also, the “percentage damage caused to the plant, five point scale, ECHCG” value (from here on “percentage damage caused … ECHCG”) in test [5] and in test [11] was 4 (4=60-79%) throughout. Besides, the “percentage damage caused to the plant, five point scale, SETFA” value (from here on “percentage damage caused … SETFA”) in the test with Setaria faberi (SETFA) [6] was 3 (3=40-59%); in the test with Setaria faberi (SETFA) [12], 4 (4=60-79%).

As to `Cc1nn(C)c(=O)c(-c2c(F)ccc(Cl)c2CCc2cccc3ccccc23)c1O` [Compound 1.044], the “percentage damage caused … AMARE” value in test [1] was 2 (2=20-39%); in [7], 3 (3=40-59%). Further, the “percentage damage caused … ABUTH” value in [2] and in test [8] was 3 (3=40-59%) in each case. Moreover, the “percentage damage caused … IPOHE” value in test [3] was 3 (3=40-59%); in test [9] it was 4 (4=60-79%). Also, the “percentage damage caused … ZEAMX” value in the test with Zea Mays (ZEAMX) [4] and in the test on Zea Mays (ZEAMX) [10] was 1 (1=0-19%) in each case. The “percentage damage caused … ECHCG” value in [5] and in test [11] was 0 in each case. Moreover, the “percentage damage caused … SETFA” value with Setaria faberi (SETFA) [6] and in the test with Setaria faberi (SETFA) [12] was 0 in each case.

Regarding `Cc1nn(C)c(=O)c(-c2c(F)ccc(Cl)c2/C=C/c2cn3ccnc3cn2)c1O` [Compound 2.363], the “percentage damage caused … AMARE” value was 5 (5=80-100%) in [1] and 1 (1=0-19%) in test [7]. In addition, the “percentage damage caused … ABUTH” value in test [2] is reported as 5 (5=80-100%); in test [8] it was 0. In addition, the “percentage damage caused … IPOHE” value is listed as 5 (5=80-100%) in test [3] and 2 (2=20-39%) in test [9]. Moreover, the entries for the “percentage damage caused … ZEAMX” value in the test with Zea Mays (ZEAMX) [4] and in the test on Zea Mays (ZEAMX) [10] were 2 (2=20-39%) and 0, respectively. Besides, the “percentage damage caused … ECHCG” value is reported as 5 (5=80-100%) in [5] and 0 in test [11]. Also, the entries for the “percentage damage caused … SETFA” value in the test with Setaria faberi (SETFA) [6] and with Setaria faberi (SETFA) [12] were 4 (4=60-79%) and 0, respectively.

As to `Cc1nn(C)c(=O)c(-c2c(F)ccc(Cl)c2CCc2ccc3c(c2)OC(C)(C)O3)c1O` [Compound 1.361, [3-chloro-2-[2-(2,2-dimethyl-1,3-benzodioxol-5-yl)ethyl]-6-fluoro-phenyl]-5-hydroxy-2,6-dimethyl-pyridazin-3-one], the “percentage damage caused … AMARE” value is 4 (4=60-79%) in test [1] and 3 (3=40-59%) in [7]. The “percentage damage caused … ABUTH” value in test [2] and in test [8] was 5 (5=80-100%) throughout. In addition, the “percentage damage caused … IPOHE” value is 4 (4=60-79%) in test [3] and 5 (5=80-100%) in [9]. Moreover, the “percentage damage caused … ZEAMX” value was 1 (1=0-19%) in the test with Zea Mays (ZEAMX) [4] and 4 (4=60-79%) with Zea Mays (ZEAMX) [10]. Besides, the figures for the “percentage damage caused … ECHCG” value in [5] and in test [11] were 3 (3=40-59%) and 4 (4=60-79%), respectively. Moreover, the “percentage damage caused … SETFA” value with Setaria faberi (SETFA) [6] and in the test on Setaria faberi (SETFA) [12] was 5 (5=80-100%) each time.

In the case of `Cc1nn(C)c(=O)c(-c2c(F)ccc(Cl)c2CCc2ccc3c(ccn3C)c2)c1O` [Compound 1.356], the results for the “percentage damage caused … AMARE” value in test [1] and in test [7] were 3 (3=40-59%) and 5 (5=80-100%), respectively. In addition, the “percentage damage caused … ABUTH” value in [2] is 1 (1=0-19%); in test [8] it was 4 (4=60-79%). Moreover, the “percentage damage caused … IPOHE” value was 2 (2=20-39%) in test [3] and 4 (4=60-79%) in test [9]. The “percentage damage caused … ZEAMX” value is 0 in the test on Zea Mays (ZEAMX) [4] and 2 (2=20-39%) with Zea Mays (ZEAMX) [10]. The “percentage damage caused … ECHCG” value in test [5] is given as 1 (1=0-19%); in test [11], 4 (4=60-79%). The “percentage damage caused … SETFA” value in the test with Setaria faberi (SETFA) [6] is 1 (1=0-19%); in the test on Setaria faberi (SETFA) [12], 5 (5=80-100%).

Turning to `Cc1nn(C)c(=O)c(-c2c(F)ccc(Cl)c2CCc2cnc3c(ccn3C)c2)c1O` [Compound 1.345], the “percentage damage caused … AMARE” value in test [1] is 5 (5=80-100%); in [7], 4 (4=60-79%). Moreover, the “percentage damage caused … ABUTH” value in [2] and in test [8] was 4 (4=60-79%) each time. The “percentage damage caused … IPOHE” value in test [3] was 5 (5=80-100%); in test [9], 4 (4=60-79%). Further, the “percentage damage caused … ZEAMX” value is given as 1 (1=0-19%) in the test on Zea Mays (ZEAMX) [4] and 2 (2=20-39%) with Zea Mays (ZEAMX) [10]. Further, the “percentage damage caused … ECHCG” value in test [5] is reported as 2 (2=20-39%); in test [11], 3 (3=40-59%). The “percentage damage caused … SETFA” value in the test on Setaria faberi (SETFA) [6] is given as 5 (5=80-100%); with Setaria faberi (SETFA) [12], 4 (4=60-79%).

As to `Cc1nn(C)c(=O)c(-c2c(F)ccc(Cl)c2CCc2ccc3c(c2)OC(F)(F)O3)c1O` [Compound 1.342], the “percentage damage caused … AMARE” value in [1] and in test [7] was 5 (5=80-100%) in each case. The “percentage damage caused … ABUTH” value is recorded as 4 (4=60-79%) in [2] and 5 (5=80-100%) in [8]. Also, the “percentage damage caused … ZEAMX” value is reported as 1 (1=0-19%) in the test on Zea Mays (ZEAMX) [4] and 4 (4=60-79%) with Zea Mays (ZEAMX) [10]. In addition, the “percentage damage caused … ECHCG” value in [5] and in test [11] was 5 (5=80-100%) throughout. Also, the “percentage damage caused … SETFA” value with Setaria faberi (SETFA) [6] is 5 (5=80-100%); in the test on Setaria faberi (SETFA) [12] it was 4 (4=60-79%). Further, the “percentage damage caused … IPOHE” value in [9] is 5 (5=80-100%).

`Cc1nn(C)c(=O)c(-c2c(F)ccc(Cl)c2CCc2nn(C)c3ccccc23)c1O` [Compound 1.344]: the “percentage damage caused … AMARE” value in test [1] and in [7] was 3 (3=40-59%) each time. The “percentage damage caused … ABUTH” value in test [2] and in [8] was 4 (4=60-79%) each time. Also, the “percentage damage caused … IPOHE” value in test [3] and in test [9] was 3 (3=40-59%) in each case. Further, the “percentage damage caused … ZEAMX” value in the test with Zea Mays (ZEAMX) [4] was 0; with Zea Mays (ZEAMX) [10], 1 (1=0-19%). The “percentage damage caused … ECHCG” value in test [5] and in [11] was 2 (2=20-39%) in each case. For the same compound, in the test with Setaria faberi (SETFA) [6], the “percentage damage caused … SETFA” value is given as 2 (2=20-39%).
